Measured values reported in patent US10478425B2, “5-phenylazaindole derivative having AMPK-activating activity” (Shionogi & Co., Ltd., priority 2016, dated 2019).
Like-named read-outs stand apart in the source and are kept apart here.

Molecular target: T1, Human AMPK α2β2γ1 (Homo sapiens, UniProt O43741+P54646)
T1 construct: The full length cDNAs of human AMPK β2 (NM_005399.3) and human AMPK α2 (NM_006252.3); The full length cDNAs of human AMPK β2 (NM_005399.3); the full length cDNA of human AMPK γ1 (NM_002733.3) had been inserted into pET28b(+); 6×His (N); made in house; host or cells: Escherichia coli BL21 CodonPlus (DE3)-RIL
Test: Test Example 2: activation of phosphorylated human AMPK α2β2γ1 (mobility-shift kinase assay, FL-Peptide 7)
Format: biochemical
Conditions: for EC150: compound concentration showing 150% relative to the control (100%), human AMPK α2β2γ1 phosphorylated with CaMKK2; for Emax: maximum rate of increase in activity within the measurement range, control = 100%
Description: The full length cDNAs of human AMPK β2 (NM_005399.3) and human AMPK α2 (NM_006252.3) were inserted into the MCS1 and MCS2 of the pETDuet-1 vector to prepare a human AMPK β2 and human AMPK α2 (6×His tag at the 5′ terminus) expressing plasmid. The plasmid was cotransfected with an expression plasmid, in which the full length cDNA of human AMPK γ1 (NM_002733.3) had been inserted into pET28b(+), into BL21 CodonPlus (DE3)-RIL to obtain an expression strain. The expression strain was cultured in TB medium, followed by induction with 0.5 mM IPTG, and cultured at 25° C. for 3 hours and then harvested. After ultrasonication, supernatant was collected and applied to Histrap FF column (GE) and RESOUECE Q column (GE) to prepare 12.5 mg of purified sample containing three types of subunit from 1.8 L of broth.
An expression vector, in which the full length cDNA of human CAMKK β (NM_172226.1) had been inserted into pGEX-6P-3, was transfected into BL21 Star (DE3). The expression strain was cultured in TB medium, followed by induction with 0.5 mM IPTG, and cultured at 25° C. for 3 hours and then harvested. After ultrasonication, supernatant was collected and applied to GSTrap FF column (GE) to prepare 14 mg of GST-fused CAMKK β from 720 ml of broth.
Thus, phosphorylation treatment was carried out as pretreatment.
Human AMPK α2β2γ1 in an amount to give a conversion rate of approximately 10% by reaction for 2 hours, and CaMKK2 in an amount capable of sufficiently imparting activity to AMPK for one hour were mixed in a buffer solution consisting of a 50 mM HEPES-NaOH buffer solution (pH 7.0), 100 mM NaCl, 5 mM magnesium chloride, 0.1% bovine serum albumin, 0.2 mM sodium orthovanadate(V), 1 mM ethylene glycol-bis(2-aminoethyl ether)-N,N,N′,N′-tetraacetic acid (EGTA), 5 mM disodium β-glycerophosphate, 1 mM dithiothreitol and 0.2 mM ATP, and the resulting liquid was left to stand at 25° C. for 1 to 1.5 hours to sufficiently phosphorylate AMPK.
After that, to the enzyme liquid, which had been subjected to phosphorylation treatment, a compound dissolved in DMSO was added so as to have a 1% DMSO concentration. The resulting liquid was left to stand for 10 minutes.
To the liquid, a substrate solution consisting of a 50 mM HEPES-NaOH buffer solution (pH 7.0), 100 mM NaCl, 10 mM magnesium chloride, 0.1% bovine serum albumin, 0.2 mM sodium orthovanadate(V), 1 mM ethylene glycol-bis(2-aminoethyl ether)-N,N,N′,N′-tetraacetic acid (EGTA), 5 mM disodium β-glycerophosphate, 2 mM dithiothreitol, 0.4 mM ATP and 3 μM FL-Peptide 7 (manufactured by Caliper Life Sciences, Inc.) was added in equal amount (10 μl in total). The resulting liquid was allowed to react at 25° C. for 2 hours, then 10 μl of 20 mM EDTA was added thereto to stop the reaction.
To detect phosphorylated fluorescent substrates, the reaction mixture was applied to a measuring device, LabChip EZ Reader II manufactured by Caliper Life Science, Inc., for detecting fluorescence by using differences in mobility due to differences in charge. The setting conditions for the device were pressure, −1.5 PSI; upstream voltage, −2250 V; downstream voltage, −400 V; post sample buffer sip time, 40 seconds; final delay, 120 seconds; and peak order, Product First.
A conversion rate was calculated from the peak heights of the obtained substrate and product. The conversion rate when not containing a compound was used as a control, and a concentration dependent curve was made by plotting the rate of increase in activity to the control at each concentration of a compound.

T1 sequence (P54646 whole entry): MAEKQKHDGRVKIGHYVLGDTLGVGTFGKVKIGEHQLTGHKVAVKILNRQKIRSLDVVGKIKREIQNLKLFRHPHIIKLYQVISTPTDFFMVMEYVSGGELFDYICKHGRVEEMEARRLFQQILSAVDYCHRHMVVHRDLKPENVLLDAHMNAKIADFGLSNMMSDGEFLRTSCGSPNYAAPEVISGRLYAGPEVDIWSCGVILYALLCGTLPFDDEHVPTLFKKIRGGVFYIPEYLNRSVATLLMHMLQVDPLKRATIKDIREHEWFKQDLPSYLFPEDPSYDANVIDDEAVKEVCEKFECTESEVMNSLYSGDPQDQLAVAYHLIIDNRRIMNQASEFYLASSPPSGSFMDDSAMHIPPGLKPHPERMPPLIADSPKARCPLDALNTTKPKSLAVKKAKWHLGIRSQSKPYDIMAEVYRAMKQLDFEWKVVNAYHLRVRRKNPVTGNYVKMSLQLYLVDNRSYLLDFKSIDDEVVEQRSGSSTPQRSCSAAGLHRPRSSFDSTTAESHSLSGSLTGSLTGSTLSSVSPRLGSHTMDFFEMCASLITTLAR
T1 sequence (O43741 whole entry): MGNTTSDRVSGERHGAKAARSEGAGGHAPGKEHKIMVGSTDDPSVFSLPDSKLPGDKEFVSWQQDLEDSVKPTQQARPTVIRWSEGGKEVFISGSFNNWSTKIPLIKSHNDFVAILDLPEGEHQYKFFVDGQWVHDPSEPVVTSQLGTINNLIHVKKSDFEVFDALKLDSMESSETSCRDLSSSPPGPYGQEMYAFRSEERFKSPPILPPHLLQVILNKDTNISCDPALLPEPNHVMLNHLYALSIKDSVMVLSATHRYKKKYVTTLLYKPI
T1 sequence (P54619 whole entry partner): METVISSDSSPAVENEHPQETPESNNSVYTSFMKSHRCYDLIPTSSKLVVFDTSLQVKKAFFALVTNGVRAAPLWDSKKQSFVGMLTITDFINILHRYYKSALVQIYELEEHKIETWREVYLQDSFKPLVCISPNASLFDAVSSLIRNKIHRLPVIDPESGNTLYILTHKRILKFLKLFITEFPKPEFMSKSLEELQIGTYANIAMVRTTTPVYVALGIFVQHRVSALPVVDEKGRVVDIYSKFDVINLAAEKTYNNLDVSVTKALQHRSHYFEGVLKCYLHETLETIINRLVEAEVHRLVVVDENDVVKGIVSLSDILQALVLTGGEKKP

SMILES	EC150	Emax (read-out: Emax)	Emax
CCOC(=O)NC1CCN(c2ccc(-c3nc4cc(O[C@@H]5CO[C@H]6[C@@H]5OC[C@H]6O)[nH]c4cc3F)cc2)CC1 [Compound I-1-10]	13 nM	490%	–
CC(C)(C)P(=O)(c1ccc(-c2ccc(-c3nc4cc(O[C@@H]5CO[C@H]6[C@@H]5OC[C@H]6O)[nH]c4cc3F)cc2)cc1)C(C)(C)C [Compound I-2-67]	22 nM	555%	–
O=C(c1ccc(-c2ccc(-c3nc4cc(O[C@@H]5CO[C@H](CO)C5)[nH]c4cc3F)cc2)cc1)N1CCCC1 [Compound I-2-49]	0.88 nM	684%	–
O=C1NCCN1c1ccc(-c2ccc(-c3nc4cc(O[C@@H]5CO[C@H]6[C@@H]5OC[C@H]6O)[nH]c4cc3F)cc2)cc1 [Compound I-1-58]	1.3 nM	494%	–
CNCCOc1ccc(-c2ccc(-c3nc4cc(O[C@@H]5CO[C@H]6[C@@H]5OC[C@H]6O)[nH]c4cc3F)cc2)cc1 [Compound I-1-69]	1.6 nM	359%	–
O[C@@H]1CO[C@H]2[C@@H]1OC[C@H]2Oc1cc2nc(-c3ccc(N4CCC(OC5CCNCC5)CC4)cc3)c(F)cc2[nH]1 [Compound I-2-62]	47 nM	514%	–
CS(C)(=O)=Nc1ccc(-c2ccc(-c3nc4cc(O[C@@H]5CO[C@H](CO)[C@H]5F)[nH]c4cc3F)cc2)cc1 [Compound I-2-42]	2.6 nM	647%	–
CN(C)CCOc1ccc(-c2ccc(-c3nc4cc(O[C@@H]5CO[C@H]6[C@@H]5OC[C@H]6O)[nH]c4cc3F)cc2)cc1 [Compound I-1-68]	2.5 nM	360%	–
OCC1(c2ccc(-c3nc4cc(O[C@@H]5CO[C@H]6[C@@H]5OC[C@H]6O)[nH]c4cc3F)cc2)CC1 [Compound I-2-66]	1.1 nM	580%	–
CN1CCC(Oc2ccc(-c3ccc(-c4nc5cc(O[C@@H]6CO[C@H]7[C@@H]6OC[C@H]7O)[nH]c5cc4F)cc3)cc2)C1 (some centres unmarked) [Compound I-1-26]	1.5 nM	353%	–
CO[C@@H]1CO[C@H]2[C@@H]1OC[C@H]2Oc1cc2nc(-c3ccc(-c4ccc(N=S(C)(C)=O)cc4)cc3)c(F)cc2[nH]1 [Compound I-1-07]	15 nM	189%	–
CS(=O)(=O)c1ccc(-c2ccc(-c3nc4cc(O[C@@H]5CO[C@H](CO)C5)[nH]c4cc3F)cc2)nc1 [Compound I-2-94]	0.99 nM	652%	–
COCCS(=O)(=O)c1ccc(-c2ccc(-c3nc4cc(O[C@@H]5CO[C@H]6[C@@H]5OC[C@H]6O)[nH]c4cc3F)cc2)cc1 [Compound I-2-95]	2.6 nM	634%	–
COC(=O)NC1CC=C(c2ccc(-c3nc4cc(O[C@@H]5CO[C@H]6[C@@H]5OC[C@H]6O)[nH]c4cc3F)cc2)CC1 (some centres unmarked) [Compound I-1-22]	3.8 nM	422%	–
O=C(c1ccc(-c2ccc(-c3nc4cc(O[C@@H]5CO[C@H]6[C@@H]5OC[C@H]6O)[nH]c4cc3F)cc2)cc1)N1CCCC1 [Compound I-1-09]	4.8 nM	475%	–
COCCCN1CCN(c2ccc(-c3nc4cc(O[C@@H]5CO[C@H]6[C@@H]5OC[C@H]6O)[nH]c4cc3F)cc2)CC1 [Compound I-2-58]	56 nM	514%	–
COc1ccc(-c2ccc(-c3nc4cc(O[C@@H]5CO[C@H]6[C@@H]5OC[C@H]6O)[nH]c4cc3F)cc2)cc1 [Compound I-2-24]	11 nM	364%	–

SMILES	EC150	Emax (read-out: Emax)	Emax
COCC(=O)Nc1ccc(-c2ccc(-c3nc4cc(O[C@@H]5CO[C@H]6[C@@H]5OC[C@H]6O)[nH]c4cc3F)cc2)cc1 [Compound I-2-10]	2.9 nM	636%	–
O[C@@H]1CO[C@H]2[C@@H]1OC[C@H]2Oc1cc2nc(-c3ccc(C4=CCN(C5=NCCO5)CC4)cc3)c(F)cc2[nH]1 [Compound I-1-51]	12 nM	486%	–
CNC(=O)CCOc1ccc(-c2ccc(-c3nc4cc(O[C@@H]5CO[C@H]6[C@@H]5OC[C@H]6O)[nH]c4cc3F)cc2)cc1 [Compound I-2-54]	1.7 nM	633%	–
CCC(=O)NC1CC(c2ccc(-c3nc4cc(O[C@@H]5CO[C@H]6[C@@H]5OC[C@H]6O)[nH]c4cc3F)cc2)C1 (some centres unmarked) [Compound I-1-40]	29 nM	541%	–
O[C@@H]1CO[C@H]2[C@@H]1OC[C@H]2Oc1cc2nc(-c3ccc(-c4ccc(OC5CNCC5F)cc4)cc3)c(F)cc2[nH]1 (some centres unmarked) [Compound I-1-71]	4.33 nM	340%	–
COCCS(=N)(=O)c1ccc(-c2ccc(-c3nc4cc(O[C@@H]5CO[C@H]6[C@@H]5OC[C@H]6O)[nH]c4cc3F)cc2)cc1 (some centres unmarked) [Compound I-2-96]	2.9 nM	631%	–
CNC(=O)c1ccc(-c2ccc(-c3nc4cc(O[C@@H]5CO[C@H](CO)C5)[nH]c4cc3F)cc2)cc1 [Compound I-2-88]	0.62 nM	683%	–
O[C@@H]1CO[C@H]2[C@@H]1OC[C@H]2Oc1cc2nc(-c3ccc(-c4ccc(OCCC(F)F)cc4)cc3)c(F)cc2[nH]1 [Compound I-2-63]	21 nM	520%	–
CC(=O)NC1CC=C(c2ccc(-c3nc4cc(O[C@@H]5CO[C@H](CO)C5)[nH]c4cc3F)cc2)CC1 (some centres unmarked) [Compound I-2-92]	0.87 nM	702%	–
CC(C)(O)/C=C/c1ccc(-c2ccc(-c3nc4cc(O[C@@H]5CO[C@H]6[C@@H]5OC[C@H]6O)[nH]c4cc3F)cc2)cc1 [Compound I-2-15]	11 nM	505%	–
O[C@@H]1CO[C@H]2[C@@H]1OC[C@H]2Oc1cc2nc(-c3ccc(-c4ccc(Oc5cccnc5)cc4)cc3)c(F)cc2[nH]1 [Compound I-2-36]	43 nM	385%	–
COC(=O)NC1CC=C(c2ccc(-c3nc4cc(O[C@@H]5CO[C@H](CO)C5)[nH]c4cc3F)cc2)CC1 (some centres unmarked) [Compound I-2-01]	–	376%	–
C[S+]([O-])c1ccc(-c2ccc(-c3nc4cc(O[C@@H]5CO[C@H]6[C@@H]5OC[C@H]6O)[nH]c4cc3F)cc2)cc1 (single isomer, unassigned) [Compound I-2-09]	1.9 nM	–	598%
COCCOC1CCN(c2ccc(-c3nc4cc(O[C@@H]5CO[C@H]6[C@@H]5OC[C@H]6O)[nH]c4cc3F)cc2)C1 (some centres unmarked) [Compound I-1-62]	21 nM	392%	–
COCCOCCOc1ccc(-c2ccc(-c3nc4cc(O[C@@H]5CO[C@H]6[C@@H]5OC[C@H]6O)[nH]c4cc3F)cc2)cc1 [Compound I-2-48]	1.1 nM	635%	–
CC(=O)N(C)c1ccc(-c2ccc(-c3nc4cc(O[C@@H]5CO[C@H]6[C@@H]5OC[C@H]6O)[nH]c4cc3F)cc2)cc1 [Compound I-1-36]	1.7 nM	437%	–
